Assay results published in patent US20250115926A1, “DEREGULATED DHS AND TYRA ENZYMES OF GRASSES ENABLE EFFICIENT PRODUCTION OF BOTH TYROSINE AND PHENYLALANINE” (Wisconsin Alumni Research Foundation, priority 2023, published 2025).
Several values for one entry are separate records, joined by “and”; a condition that tells them apart may be missing. Equal values may be shown once.

How the values were obtained:
Assay in all cases: TyrA arogenate dehydrogenase kinetics and tyrosine inhibition (340 nm)
Type in all cases: biochemical
[1] = biological target: T1, Brachypodium distachyon BdTyrA2, SEQ ID NO: 35, recombinant (Brachypodium distachyon, UniProt I1GWX1)
T1 sequence (I1GWX1 55-365): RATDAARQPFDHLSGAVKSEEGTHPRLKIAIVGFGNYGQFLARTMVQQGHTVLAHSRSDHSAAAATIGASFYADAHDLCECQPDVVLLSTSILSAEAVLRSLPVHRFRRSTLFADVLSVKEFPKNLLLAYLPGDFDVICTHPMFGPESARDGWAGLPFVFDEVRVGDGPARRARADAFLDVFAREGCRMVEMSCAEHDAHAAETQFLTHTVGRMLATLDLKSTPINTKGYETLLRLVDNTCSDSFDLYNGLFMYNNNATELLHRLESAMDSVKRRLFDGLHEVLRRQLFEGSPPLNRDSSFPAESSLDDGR
Text: (§1) Next, to study the biochemical properties of grass TyrA enzymes, we generated and characterized recombinant purified TyrA proteins from Brachypodium (BdTyrA) and Sorghum (SbTyrA), two distantly related grass species^43, 44. Whereas TyrA enzymes from dicot plants are generally NADP^+-dependent arogenate dehydrogenases^20, 39, 45, except for NADP^+-prephenate dehydrogenases in the legume family^40, 46, previous reports on the substrate preference of grass TyrA enzymes are inconclusive^17, 19. […] NAD^+-prephenate dehydrogenase activity was absent in all cases, ruling out a significant contamination of the enzyme preparations with the TyrA enzyme from E. coli^47.48.

[2] = biological target: T2, Brachypodium distachyon BdTyrAnc (non-canonical TyrA), SEQ ID NO: 37, recombinant (Brachypodium distachyon, UniProt I1GYB3)
T2 construct: from cDNA
T2 sequence (I1GYB3 58-361): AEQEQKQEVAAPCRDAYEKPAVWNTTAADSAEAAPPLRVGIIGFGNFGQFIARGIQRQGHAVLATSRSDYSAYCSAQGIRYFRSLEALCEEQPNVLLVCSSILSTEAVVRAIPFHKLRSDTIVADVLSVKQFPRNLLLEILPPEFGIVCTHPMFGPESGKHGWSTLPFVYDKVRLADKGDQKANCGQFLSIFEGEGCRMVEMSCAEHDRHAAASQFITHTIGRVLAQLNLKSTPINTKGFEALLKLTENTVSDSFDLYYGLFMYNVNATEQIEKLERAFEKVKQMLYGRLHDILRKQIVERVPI
Text: as §1

[3] = biological target: T3, Sorghum bicolor SbTyrA2, SEQ ID NO: 41, recombinant (Sorghum bicolor, UniProt C5Z9D2)
T3 construct: from genomic DNA
T3 sequence (C5Z9D2 53-389): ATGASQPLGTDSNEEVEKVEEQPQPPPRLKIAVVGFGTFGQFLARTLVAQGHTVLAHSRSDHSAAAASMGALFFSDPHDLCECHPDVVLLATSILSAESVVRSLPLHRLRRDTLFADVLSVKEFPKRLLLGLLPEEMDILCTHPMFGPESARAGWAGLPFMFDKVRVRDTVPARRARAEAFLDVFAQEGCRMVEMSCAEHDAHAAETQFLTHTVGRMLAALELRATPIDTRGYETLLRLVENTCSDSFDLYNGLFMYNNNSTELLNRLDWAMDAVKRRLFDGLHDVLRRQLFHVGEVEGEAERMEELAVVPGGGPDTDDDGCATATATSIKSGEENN
Text: as §1

[4] = IC50 (tyrosine), 0.5 mM arogenate, 1 mM NADP^+
[5] = calculated from Km and IC50, competitive inhibition model

## N[C@@H](Cc1ccc(O)cc1)C(=O)O [tyrosine]
[1]; 200 μM tyrosine
  activity at 200 μM of tyrosine: fully inactive
[1]; [4]
  IC50: ~20 µM and 20 µM
[1]; [5]
  Ki: 8 ± 2 µM
[2]; [4]
  IC50: 242 ± 45 µM
[2]; [5]
  Ki: 64 ± 25 µM
[2]; read-out: activity retained at 200 μM of tyrosine
  activity at 200 µM: > 50%
[2]; with respect to arogenate
  mode of inhibition by tyrosine: competitive with arogenate
[3]
  IC50: 47 ± 23 µM
  Ki: 36 ± 13 µM
